In PubChem BioAssay (NCI):
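Test compounds were applied to cells in 96-well plates for 48 hours at 5 doses. TGI is the concentration that stops growth completely.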

How the values were obtained:
Assay in all cases: DTP human tumour cell line panel, 48 h
NCI-H522 lung = system: NCI-H522 lung
M19-MEL melanoma = system: M19-MEL melanoma
K-562 leukemia = system: K-562 leukemia
SK-MEL-28 melanoma = system: SK-MEL-28 melanoma
XF 498 CNS = system: XF 498 CNS
CCRF-CEM leukemia = system: CCRF-CEM leukemia
LXFL 529 NSCLC = system: LXFL 529 NSCLC
RXF 393 renal = system: RXF 393 renal
A498 renal = system: A498 renal
UO-31 renal = system: UO-31 renal
SN12C renal = system: SN12C renal
HL-60(TB) leukemia = system: HL-60(TB) leukemia
SNB-78 CNS = system: SNB-78 CNS
NCI-H23 lung = system: NCI-H23 lung
HCT-15 colon = system: HCT-15 colon
HCC-2998 colon = system: HCC-2998 colon
SNB-75 CNS = system: SNB-75 CNS
RPMI-8226 leukemia = system: RPMI-8226 leukemia
TK-10 renal = system: TK-10 renal
HCT-116 colon = system: HCT-116 colon
SF-295 CNS = system: SF-295 CNS
ACHN renal = system: ACHN renal
HOP-18 NSCLC = system: HOP-18 NSCLC
LOX IMVI melanoma = system: LOX IMVI melanoma
DLD-1 colon = system: DLD-1 colon
A549 NSCLC = system: A549 NSCLC
KM20L2 colon = system: KM20L2 colon
OVCAR-8 ovarian = system: OVCAR-8 ovarian
SW-620 colon = system: SW-620 colon
SR leukemia = system: SR leukemia
U251 CNS = system: U251 CNS
KM12 colon = system: KM12 colon
UACC-257 melanoma = system: UACC-257 melanoma
UACC-62 melanoma = system: UACC-62 melanoma
MALME-3M melanoma = system: MALME-3M melanoma
OVCAR-3 ovarian = system: OVCAR-3 ovarian
COLO 205 colon = system: COLO 205 colon
SK-MEL-5 melanoma = system: SK-MEL-5 melanoma
M14 melanoma = system: M14 melanoma
HT29 colon = system: HT29 colon
OVCAR-5 ovarian = system: OVCAR-5 ovarian
SK-MEL-2 melanoma = system: SK-MEL-2 melanoma
SF-539 CNS = system: SF-539 CNS
RXF-631 renal = system: RXF-631 renal
SK-OV-3 ovarian = system: SK-OV-3 ovarian
DMS 114 small cell lung = system: DMS 114 small cell lung
SNB-19 CNS = system: SNB-19 CNS
IGROV1 ovarian = system: IGROV1 ovarian
HOP-92 NSCLC = system: HOP-92 NSCLC
NCI-H460 lung = system: NCI-H460 lung
EKVX NSCLC = system: EKVX NSCLC
MOLT-4 leukemia = system: MOLT-4 leukemia
OVCAR-4 ovarian = system: OVCAR-4 ovarian
DMS 273 small cell lung = system: DMS 273 small cell lung
SF-268 CNS = system: SF-268 CNS
HOP-62 NSCLC = system: HOP-62 NSCLC
CAKI-1 renal = system: CAKI-1 renal
786-0 renal = system: 786-0 renal
NCI-H226 lung = system: NCI-H226 lung

Q: What does the source list for `CCCNCC(O)/C=C/[Si](C)(C)C` (configuration not stated) (tested in a mixture with another compound)?
A: TGI (NCI-H522 lung): > 100 µM; TGI (M19-MEL melanoma): > 100 µM; TGI (K-562 leukemia): > 100 µM; TGI (SK-MEL-28 melanoma): > 100 µM; TGI (XF 498 CNS): 74.8 µM; TGI (CCRF-CEM leukemia): > 100 µM; TGI (LXFL 529 NSCLC): > 100 µM; TGI (RXF 393 renal): > 100 µM; TGI (A498 renal): > 100 µM; TGI (UO-31 renal): > 100 µM; TGI (SN12C renal): > 100 µM; TGI (HL-60(TB) leukemia): > 100 µM; TGI (SNB-78 CNS): > 100 µM; TGI (NCI-H23 lung): > 100 µM; TGI (HCT-15 colon): > 100 µM; TGI (HCC-2998 colon): > 100 µM; TGI (SNB-75 CNS): > 100 µM; TGI (RPMI-8226 leukemia): > 100 µM; TGI (TK-10 renal): > 100 µM; TGI (HCT-116 colon): > 100 µM; TGI (SF-295 CNS): > 100 µM; TGI (ACHN renal): > 100 µM; TGI (HOP-18 NSCLC): > 100 µM; TGI (LOX IMVI melanoma): > 100 µM; TGI (DLD-1 colon): > 100 µM; TGI (A549 NSCLC): > 100 µM; TGI (KM20L2 colon): > 100 µM; TGI (OVCAR-8 ovarian): > 100 µM; TGI (SW-620 colon): > 100 µM; TGI (SR leukemia): > 100 µM; TGI (U251 CNS): > 100 µM; TGI (KM12 colon): > 100 µM; TGI (UACC-257 melanoma): > 100 µM; TGI (UACC-62 melanoma): > 100 µM; TGI (MALME-3M melanoma): > 100 µM; TGI (OVCAR-3 ovarian): > 100 µM; TGI (COLO 205 colon): > 100 µM; TGI (SK-MEL-5 melanoma): > 100 µM; TGI (M14 melanoma): > 100 µM; TGI (HT29 colon): > 100 µM; TGI (OVCAR-5 ovarian): > 100 µM; TGI (SK-MEL-2 melanoma): > 100 µM; TGI (SF-539 CNS): > 100 µM; TGI (RXF-631 renal): > 100 µM; TGI (SK-OV-3 ovarian): > 100 µM; TGI (DMS 114 small cell lung): > 100 µM; TGI (SNB-19 CNS): > 100 µM; TGI (IGROV1 ovarian): > 100 µM; TGI (HOP-92 NSCLC): > 100 µM; TGI (NCI-H460 lung): > 100 µM; TGI (EKVX NSCLC): > 100 µM

Q: How did the TGI (NCI-H522 lung) turn out when `C=CCCC12CCCC(=O)C1Sc1ccc3ccccc3c12` (configuration not stated) was run?
A: The TGI was 35 µM.

Q: And the TGI (M19-MEL melanoma)?
A: Its TGI is greater than 100 µM.

Q: And the TGI (K-562 leukemia)?
A: The TGI was greater than 100 µM.

Q: What about the TGI (SK-MEL-28 melanoma) of the same compound?
A: The TGI was greater than 100 µM.

Q: What about the TGI (CCRF-CEM leukemia) of the same compound?
A: Its TGI is 53.8 µM.

Q: And the TGI (LXFL 529 NSCLC)?
A: The TGI was 33.2 µM.

Q: And the TGI (RXF 393 renal)?
A: Its TGI is 26.2 µM.

Q: And the TGI (MOLT-4 leukemia)?
A: The TGI was 39.6 µM.

Q: What about the TGI (A498 renal) of the same compound?
A: The TGI was 26.1 µM.

Q: What about the TGI (UO-31 renal) of the same compound?
A: The TGI was 42.5 µM.

Q: What about the TGI (OVCAR-4 ovarian) of the same compound?
A: Its TGI is greater than 100 µM.

Q: And the TGI (SN12C renal)?
A: The TGI was 54.4 µM.

Q: And the TGI (HL-60(TB) leukemia)?
A: Its TGI is 44.6 µM.

Q: What about the TGI (SNB-78 CNS) of the same compound?
A: Its TGI is 60.8 µM.

Q: What about the TGI (DMS 273 small cell lung) of the same compound?
A: The TGI was 23.6 µM.

Q: What about the TGI (NCI-H23 lung) of the same compound?
A: The TGI was 55.7 µM.

Q: What about the TGI (HCT-15 colon) of the same compound?
A: Its TGI is 37.5 µM.

Q: What about the TGI (HCC-2998 colon) of the same compound?
A: Its TGI is 34.2 µM.

Q: And the TGI (SNB-75 CNS)?
A: Its TGI is 82.9 µM.

Q: What about the TGI (RPMI-8226 leukemia) of the same compound?
A: The TGI was 42.9 µM.

Q: And the TGI (TK-10 renal)?
A: The TGI was 51.2 µM.

Q: And the TGI (SF-295 CNS)?
A: The TGI was 51.2 µM.

Q: What about the TGI (ACHN renal) of the same compound?
A: The TGI was 92.3 µM.

Q: What about the TGI (HOP-18 NSCLC) of the same compound?
A: The TGI was 61.2 µM.

Q: What about the TGI (SF-268 CNS) of the same compound?
A: Its TGI is greater than 100 µM.

Q: What about the TGI (LOX IMVI melanoma) of the same compound?
A: The TGI was 26.5 µM.

Q: What about the TGI (DLD-1 colon) of the same compound?
A: Its TGI is 71.5 µM.

Q: And the TGI (HOP-62 NSCLC)?
A: The TGI was 53.5 µM.

Q: And the TGI (A549 NSCLC)?
A: The TGI was 24.5 µM.

Q: And the TGI (OVCAR-8 ovarian)?
A: Its TGI is greater than 100 µM.

Q: And the TGI (SW-620 colon)?
A: Its TGI is 58.6 µM.

Q: What about the TGI (U251 CNS) of the same compound?
A: The TGI was 33.6 µM.

Q: And the TGI (KM12 colon)?
A: The TGI was 31.2 µM.

Q: What about the TGI (CAKI-1 renal) of the same compound?
A: Its TGI is 26.4 µM.

Q: What about the TGI (UACC-257 melanoma) of the same compound?
A: The TGI was 55.7 µM.

Q: And the TGI (786-0 renal)?
A: The TGI was 48.2 µM.

Q: And the TGI (UACC-62 melanoma)?
A: Its TGI is 40 µM.

Q: And the TGI (NCI-H226 lung)?
A: The TGI was 36.2 µM.

Q: What about the TGI (MALME-3M melanoma) of the same compound?
A: The TGI was 52.7 µM.

Q: And the TGI (OVCAR-3 ovarian)?
A: Its TGI is 29 µM.

Q: And the TGI (COLO 205 colon)?
A: Its TGI is 29.1 µM.

Q: And the TGI (M14 melanoma)?
A: The TGI was 31.1 µM.

Q: And the TGI (HT29 colon)?
A: The TGI was 67.2 µM.

Q: What about the TGI (OVCAR-5 ovarian) of the same compound?
A: The TGI was 93.5 µM.

Q: What about the TGI (SK-MEL-2 melanoma) of the same compound?
A: The TGI was 32.8 µM.

Q: What about the TGI (SF-539 CNS) of the same compound?
A: The TGI was 28.5 µM.

Q: What about the TGI (RXF-631 renal) of the same compound?
A: The TGI was 34 µM.

Q: And the TGI (SK-OV-3 ovarian)?
A: The TGI was 66.4 µM.

Q: What about the TGI (SNB-19 CNS) of the same compound?
A: Its TGI is 96 µM.

Q: What about the TGI (IGROV1 ovarian) of the same compound?
A: The TGI was greater than 100 µM.

Q: And the TGI (EKVX NSCLC)?
A: The TGI was 64.2 µM.
